Values of other authors, collected in patent US8658806B2, “Process for preparing optically active antrocin” (Deyew Biotech Corp., priority 2011, dated 2014).

Test system: MDA-MB-231 cells
Conditions: from Rao et al., Chem. Res. Toxicol. 2011, 24, 238-245, read-out: IC50 value against MDA-MB-231 cells of metastatic breast cancer

Compound: C=C1CC[C@H]2C(C)(C)CCC[C@@]23C(=O)OC[C@@H]13 [antrocin]
- IC50: 600 nM
